Converted amounts (≈) assume the structure as drawn.
How the values were obtained:
Assay type in all cases: functional
Enterococcus faecium = experiment: In vitro antibacterial activity against Enterococcus faecium ATCC 8043 organism, activity expressed as minimum inhibitory concentration (MIC)
Escherichia coli = experiment: In vitro antibacterial activity against Escherichia coli juhl organism, activity expressed as minimum inhibitory concentration (MIC)
Pseudomonas aeruginosa = experiment: In vitro antibacterial activity against Pseudomonas aeruginosa K799/WT organism, activity expressed as minimum inhibitory concentration (MIC)
Staphylococcus aureus [1] = experiment: In vitro antibacterial activity against Staphylococcus aureus 1775 organism expressed as minimum inhibitory concentration (MIC)
Streptococcus pyogenes = experiment: In vitro antibacterial activity against Streptococcus pyogenes 930 organism, activity expressed as minimum inhibitory concentration (MIC)
Staphylococcus aureus [2] = experiment: In vitro antibacterial activity against Staphylococcus aureus NCTC 10649M organism expressed as minimum inhibitory concentration (MIC)

In the case of `Cc1c(N2CC[C@H](N)C2)c(F)cn2c(=O)c(C(=O)O)cc(C3CCC3)c12`, the MIC (Enterococcus faecium) is reported as 0.39 µg/mL (≈ 1.09 µM), the MIC (Escherichia coli) is reported as 0.05 µg/mL (≈ 0.139 µM) and the MIC (Pseudomonas aeruginosa) is reported as 3.1 µg/mL (≈ 8.63 µM). It also gave an MIC (Staphylococcus aureus [1]) of 12.5 µg/mL (≈ 34.8 µM), an MIC (Streptococcus pyogenes) of 0.39 µg/mL (≈ 1.09 µM) and an MIC (Staphylococcus aureus [2]) of 0.1 µg/mL (≈ 0.278 µM).
`Cc1c(N2CC[C@H](N)C2)c(F)cn2c(=O)c(C(=O)O)cc(C3CC3)c12` [ABT-719] gave an MIC (Enterococcus faecium) of 0.02 µg/mL (≈ 0.0579 µM), an MIC (Escherichia coli) of 0.01 µg/mL (≈ 0.029 µM) and an MIC (Pseudomonas aeruginosa) of 0.05 µg/mL (≈ 0.145 µM). The MIC (Staphylococcus aureus [1]) was 0.78 µg/mL (≈ 2.26 µM), the MIC (Streptococcus pyogenes) was 0.02 µg/mL (≈ 0.0579 µM) and the MIC (Staphylococcus aureus [2]) was 0.01 µg/mL (≈ 0.029 µM).
With `Cc1c(N2CC[C@H](N)C2)c(F)cn2c(=O)c(C(=O)O)ccc12` the MIC (Enterococcus faecium) was 25 µg/mL (≈ 81.9 µM), the MIC (Escherichia coli) was 0.39 µg/mL (≈ 1.28 µM) and the MIC (Pseudomonas aeruginosa) was 6.2 µg/mL (≈ 20.3 µM). For the same molecule, the MIC (Staphylococcus aureus [1]) was greater than 100 µg/mL, the MIC (Streptococcus pyogenes) was 12.5 µg/mL (≈ 40.9 µM) and the MIC (Staphylococcus aureus [2]) was 3.1 µg/mL (≈ 10.2 µM).
For `Cc1c(N2CC[C@H](N)C2)c(F)cn2c(=O)c(C(=O)O)cc(CC(C)(C)C)c12`, the MIC (Enterococcus faecium) was 6.2 µg/mL (≈ 16.5 µM), the MIC (Pseudomonas aeruginosa) was 12.5 µg/mL (≈ 33.3 µM) and the MIC (Staphylococcus aureus [1]) was 50 µg/mL (≈ 133 µM). The MIC (Streptococcus pyogenes) was 3.1 µg/mL (≈ 8.26 µM) and the MIC (Staphylococcus aureus [2]) was 1.56 µg/mL (≈ 4.16 µM).
In the case of `Cc1cc(C(=O)O)c(=O)n2cc(F)c(N3CC[C@H](N)C3)c(C)c12`, the MIC (Enterococcus faecium) is reported as 0.39 µg/mL (≈ 1.22 µM), the MIC (Escherichia coli) is reported as 0.05 µg/mL (≈ 0.157 µM) and the MIC (Pseudomonas aeruginosa) is reported as 3.1 µg/mL (≈ 9.71 µM). It also gave an MIC (Staphylococcus aureus [1]) of 12.5 µg/mL (≈ 39.1 µM), an MIC (Streptococcus pyogenes) of 0.39 µg/mL (≈ 1.22 µM) and an MIC (Staphylococcus aureus [2]) of 0.1 µg/mL (≈ 0.313 µM).
`Cc1c(N2CC[C@H](N)C2)c(F)cn2c(=O)c(C(=O)O)cc(C3CCCC3)c12` showed an MIC (Enterococcus faecium) of 12.5 µg/mL (≈ 33.5 µM), an MIC (Escherichia coli) of 0.78 µg/mL (≈ 2.09 µM) and an MIC (Pseudomonas aeruginosa) of 25 µg/mL (≈ 66.9 µM). For the same molecule, the MIC (Staphylococcus aureus [1]) was 50 µg/mL (≈ 134 µM), the MIC (Streptococcus pyogenes) was 12.5 µg/mL (≈ 33.5 µM) and the MIC (Staphylococcus aureus [2]) was 3.1 µg/mL (≈ 8.3 µM).
For `Cc1c(N2CC[C@H](N)C2)c(F)cn2c(=O)c(C(=O)O)cc(C(C)C)c12`, the MIC (Enterococcus faecium) was 0.2 µg/mL (≈ 0.576 µM), the MIC (Escherichia coli) was 0.39 µg/mL (≈ 1.12 µM) and the MIC (Pseudomonas aeruginosa) was 1.56 µg/mL (≈ 4.49 µM). For the same molecule, the MIC (Staphylococcus aureus [1]) was 6.2 µg/mL (≈ 17.8 µM), the MIC (Streptococcus pyogenes) was 0.2 µg/mL (≈ 0.576 µM) and the MIC (Staphylococcus aureus [2]) was 0.1 µg/mL (≈ 0.288 µM).
`COCCc1cc(C(=O)O)c(=O)n2cc(F)c(N3CC[C@H](N)C3)c(C)c12` showed an MIC (Enterococcus faecium) greater than 100 µg/mL, an MIC (Escherichia coli) of 12.5 µg/mL (≈ 34.4 µM) and an MIC (Pseudomonas aeruginosa) of 100 µg/mL (≈ 275 µM). It also gave an MIC (Staphylococcus aureus [1]) greater than 100 µg/mL and an MIC (Staphylococcus aureus [2]) of 50 µg/mL (≈ 138 µM).
With `CCC(C)c1cc(C(=O)O)c(=O)n2cc(F)c(N3CC[C@H](N)C3)c(C)c12` (stereo not given in full) the MIC (Enterococcus faecium) was 12.5 µg/mL (≈ 34.6 µM), the MIC (Escherichia coli) was 1.56 µg/mL (≈ 4.32 µM) and the MIC (Pseudomonas aeruginosa) was 50 µg/mL (≈ 138 µM). The MIC (Staphylococcus aureus [1]) was greater than 100 µg/mL, the MIC (Streptococcus pyogenes) was 50 µg/mL (≈ 138 µM) and the MIC (Staphylococcus aureus [2]) was 6.2 µg/mL (≈ 17.2 µM).
In the case of `C=Cc1cc(C(=O)O)c(=O)n2cc(F)c(N3CC[C@H](N)C3)c(C)c12`, the MIC (Enterococcus faecium) is reported as 1.56 µg/mL (≈ 4.71 µM), the MIC (Escherichia coli) is reported as 0.2 µg/mL (≈ 0.604 µM) and the MIC (Pseudomonas aeruginosa) is reported as 0.78 µg/mL (≈ 2.35 µM). It also gave an MIC (Staphylococcus aureus [1]) greater than 100 µg/mL, an MIC (Streptococcus pyogenes) of 1.56 µg/mL (≈ 4.71 µM) and an MIC (Staphylococcus aureus [2]) of 0.78 µg/mL (≈ 2.35 µM).
`Cc1c(N2CC[C@H](N)C2)c(F)cn2c(=O)c(C(=O)O)cc(CC3CC3)c12` showed an MIC (Enterococcus faecium) of 6.2 µg/mL (≈ 17.3 µM), an MIC (Escherichia coli) of 0.78 µg/mL (≈ 2.17 µM) and an MIC (Pseudomonas aeruginosa) of 12.5 µg/mL (≈ 34.8 µM). For the same molecule, the MIC (Staphylococcus aureus [1]) was 25 µg/mL (≈ 69.6 µM), the MIC (Streptococcus pyogenes) was 6.2 µg/mL (≈ 17.3 µM) and the MIC (Staphylococcus aureus [2]) was 1.56 µg/mL (≈ 4.34 µM).
Work on `C=CCc1cc(C(=O)O)c(=O)n2cc(F)c(N3CC[C@H](N)C3)c(C)c12` yielded an MIC (Enterococcus faecium) of 1.56 µg/mL (≈ 4.52 µM), an MIC (Escherichia coli) of 1.56 µg/mL (≈ 4.52 µM) and an MIC (Pseudomonas aeruginosa) of 3.1 µg/mL (≈ 8.98 µM). For the same molecule, the MIC (Staphylococcus aureus [1]) was greater than 100 µg/mL, the MIC (Streptococcus pyogenes) was 1.56 µg/mL (≈ 4.52 µM) and the MIC (Staphylococcus aureus [2]) was 0.78 µg/mL (≈ 2.26 µM).
